# Assay results as given in patent publication US20260041629A1, “Methods and Systems to Reduce Injury in Treated Tissues” (MileHigh Repro Solutions, LLC, priority 2022, published 2026).
# Assays:
# [1] = test system: ewe cervices; test: Experiment 1: in vitro efficacy of solution, AI rod passage through excised cervical tracts; details: ¼ cc rod, tracts treated 1 hour, * = statistically significant improvement over control
# Description: Ewe and bison cervical tracts were obtained to assess local responses in living tissue thereby modeling in vivo response to a solution. Tracts were treated for 1 hour with the respective solution using an absorbent matrix applicator, then ¼ cc AI rods were passed through the cervix, mimicking trans-cervical artificial insemination. A total of […] tracts were utilized with each of 13 treatments tested in 11 replicates. The estimated number of rings passed was recorded. Post-treatment tracts were dissected, then length and cervical anatomy were recorded, and relationships between cervical structure, ring number and position were and analyzed. Ring passage data was transformed into a percentage of rings passed to normalize the data and to allow comparison across an undefined variety of tissues, breeds, ages, and other etiological differences. A paired T-test indicated trends in increased passage of AI rod (P=0.064) when treating the cervix versus control.
# [2] = test system: boar sperm; test: Experiment 2: compatibility with sperm in vitro (motility by computer assisted sperm analyzer); type: cell-based; details: exposure 3 hours, 37° C
# Description: A successful cervical softening agent should be safe for a mammal's tissues and also for sperm used to inseminate the mammal. It was anticipated that the cervical tract and the AI rod will each retain a residue of the solution treatment which may then combine with the semen inside the cervix or uterus. Therefore, experiments were performed using sperm samples from boars to evaluate the toxicity of each proposed treatment and blends.
# Extended boar sperm doses (28×10^6/ml; 1 ml) were incubated with each of the miscible solutions at 3 concentrations, 0.1 μL, 0.5 μL, or 1 μL per 1 mL extended sperm, then the sperm with the solution were incubated for 3 hours at 37° C. Motility characteristics were measured via computer assisted sperm analyzer. This experiment was replicated 4 times.
structure (smiles),measurement,setting,value
"CCCC[N+]1(C)[C@@H]2C[C@@H](OC(=O)[C@H](CO)c3ccccc3)C[C@H]1[C@@H]1O[C@@H]12 (stereo partly shown) [Extract F, hyoscine butylbromide]",Avg. % Cervical rings passed,[1],50.02* %
same,"Sperm motility, motile percentage of the total number of spermatozoa",[2]; dose 0.1 μL in 1 mL sperm,90.7%
same,"Sperm motility, motile percentage of the total number of spermatozoa",[2]; dose 0.5 μL in 1 mL sperm,93.3%
same,"Sperm motility, motile percentage of the total number of spermatozoa",[2]; dose 1 μL in 1 mL sperm,91.8%
